Measured values taken from patent US20110152092A1, “Herbicidal compositions comprising flufenacet” (Bayer CropScience AG, priority 2009, published 2011).

Experiments:
LOLPE = test: Greenhouse trial, PO application, post-emergence action against weeds (test method 2); type: in vivo, Lolium perenne; conditions: g of AS/ha: (A) 120, (B) 1200, (C) 120, mixture 120 + 1200 + 120
Description: (§1) In the standard design of the test, seeds of various broad-leaved weed and weed grass biotypes (origins) were sown in a 8-13 cm diameter pot filled with natural soil of a standard field soil (loamy silt; non-sterile) and covered with a covering soil layer of about 1 cm. The pots were then cultivated in a greenhouse (12-16 h of light, temperature day 20-22° C., night 15-18° C.) until the time of application. The pots were treated on a laboratory track sprayer with spray liquors comprising the compositions according to the invention, mixtures of the prior art or components used individually. Application of the active compounds or active compound combinations formulated as WG, WP, EC or otherwise was carried out at the appropriate growth stages of the plants. The application rate for the spray application was 100-600 l of water/ha. After the treatment, the plants were returned to the greenhouses.
About 3 weeks after the application, the soil action or/and foliar action was assessed visually according to a scale of 0-100% in comparison to an untreated comparative group: 0%=no noticeable effect compared to the untreated comparative group; 100%=full effect compared to the untreated comparative group. […]

MATCH [1] = test: Greenhouse trial, PE application with different irrigation variations (test method 6); type: in vivo, Matricaria chamomilla; conditions: irrigation from above, g of AS/ha: (A) 120, (B) 1200, (C) 90, mixture 120 + 1200 + 90
Description: as §1
(§2) About 3 weeks after the application, the soil action or/and foliar action was assessed visually according to a scale of 0-100% in comparison to an untreated comparative group: 0%=no noticeable effect compared to the untreated comparative group; 100%=full effect compared to the untreated comparative group.
(§3) (notes: the term “seeds” also includes vegetative propagation forms such as, for example, rhizome pieces; abbreviations used: h light=hours of illumination, g of AS/ha=gram of active substance per hectare, l/ha=liter per hectare, S=sensitive, R=resistant) • 1. Pre-emergence action against weeds: seeds of various broad-leaved weed and weed grass biotypes (origins) were sown in a 8-13 cm diameter pot filled with natural soil of a standard field soil (loamy silt; non-sterile) and covered with a covering soil layer of about 1 cm. The pots were then cultivated in a greenhouse (12-16 h of light, temperature day 20-22° C., night 15-18° C.) until the time of application. […]

STEME = test: Greenhouse trial, activity with different soil types; type: in vivo, Stellaria media; conditions: g of AS/ha: (A) 120, (B) 1200, (C) 90, mixture 120 + 1200 + 90
Description: as §1, §2
(§4) (notes: the term “seeds” also includes vegetative propagation forms such as, for example, rhizome pieces; abbreviations used: h light=hours of illumination, g of AS/ha=gram of active substance per hectare, l/ha=liter per hectare, S=sensitive, R=resistant) • 1. Pre-emergence action against weeds: seeds of various broad-leaved weed and weed grass biotypes (origins) were sown in a 8-13 cm diameter pot filled with natural soil of a standard field soil (loamy silt; non-sterile) and covered with a covering soil layer of about 1 cm. The pots were then cultivated in a greenhouse (12-16 h of light, temperature day 20-22° C., night 15-18° C.) until the time of application. The pots were treated at the BBCH stage 00-10 of the seeds/plants on a laboratory track sprayer with spray liquors comprising the compositions according to the invention, mixtures or components used individually, as WG, WP, EC or other formulations. The application rate for the spray application was 100-600 l of water/ha. After the treatment, the plants were returned to the greenhouses and, when required, treated with fertilizer and watered. • 2. Post-emergence action against weeds: seeds of various broad-leaved weed and weed grass biotypes (origins) were sown in a 8-13 cm diameter pot filled with natural soil of a standard field soil (loamy silt; non-sterile) and covered with a covering soil layer of about 1 cm. The pots were then cultivated in a greenhouse (12-16 h of light, temperature day 20-22° C., night 15-18° C.) until the time of application. The pots were treated at various BBCH stages between 11-25 of the seeds/plants, i.e. generally between two to three weeks after the start of the cultivation, on a laboratory track sprayer with spray liquors comprising the compositions according to the invention, mixtures or components used individually, as WG, WP, EC or other formulations. The application rate for the spray application was 100-600 l of water/ha. After the treatment, the plants were returned to the greenhouses and, when required, treated with fertilizer and watered. • 3. Selective pre-emergence action: seeds of various crop species (origins) were sown in a 8-13 cm diameter pot filled with natural soil of a standard field soil (loamy silt; non-sterile) and covered with a covering soil layer of about 1 cm. The pots were then cultivated in a greenhouse (12-16 h of light, temperature day 20-22° C., night 15-18° C.) until the time of application. The pots were treated at the BBCH stage 00-10 of the seeds/plants on a laboratory track sprayer with spray liquors comprising the compositions according to the invention, mixtures or components used individually, as WG, WP, EC or other formulations. The application rate for the spray application was 100-600 l of water/ha. […]

MATCH [2] = test: as above; type: in vivo, Matricaria chamomilla; conditions: g of AS/ha: (A) 120, (B) 1200, (C) 90, mixture 120 + 1200 + 90
Description: as §1, §2
(notes: the term “seeds” also includes vegetative propagation forms such as, for example, rhizome pieces; abbreviations used: h light=hours of illumination, g of AS/ha=gram of active substance per hectare, l/ha=liter per hectare, S=sensitive, R=resistant) • 1. Pre-emergence action against weeds: seeds of various broad-leaved weed and weed grass biotypes (origins) were sown in a 8-13 cm diameter pot filled with natural soil of a standard field soil (loamy silt; non-sterile) and covered with a covering soil layer of about 1 cm. The pots were then cultivated in a greenhouse (12-16 h of light, temperature day 20-22° C., night 15-18° C.) until the time of application. The pots were treated at the BBCH stage 00-10 of the seeds/plants on a laboratory track sprayer with spray liquors comprising the compositions according to the invention, mixtures or components used individually, as WG, WP, EC or other formulations. The application rate for the spray application was 100-600 l of water/ha. After the treatment, the plants were returned to the greenhouses and, when required, treated with fertilizer and watered. • 2. Post-emergence action against weeds: seeds of various broad-leaved weed and weed grass biotypes (origins) were sown in a 8-13 cm diameter pot filled with natural soil of a standard field soil (loamy silt; non-sterile) and covered with a covering soil layer of about 1 cm. The pots were then cultivated in a greenhouse (12-16 h of light, temperature day 20-22° C., night 15-18° C.) until the time of application. The pots were treated at various BBCH stages between 11-25 of the seeds/plants, i.e. generally between two to three weeks after the start of the cultivation, on a laboratory track sprayer with spray liquors comprising the compositions according to the invention, mixtures or components used individually, as WG, WP, EC or other formulations. The application rate for the spray application was 100-600 l of water/ha. After the treatment, the plants were returned to the greenhouses and, when required, treated with fertilizer and watered. • 3. […]

ALOMY = test: Greenhouse trial, PE application on sensitive and resistant biotypes (test method 8); type: in vivo, Alopecurus myosuroides; conditions: g of AS/ha: (A) 90, (B) 1200, (C) 90, mixture 90 + 1200 + 90, iodosulfuron 10
Description: as §1, §2, §4

APESV = test: Greenhouse trial, PE application at different sowing depths (test method 9); type: in vivo, Apera Spica-venti; conditions: sowing depth 5 mm, g of AS/ha: (A) 120, (B) 1200, (C) 90, mixture 90 + 1200 + 90
Description: as §1, §2, §3

CC(C)N(C(=O)COc1nnc(C(F)(F)F)s1)c1ccc(F)cc1 [(A) flufenacet, N-(4-fluorophenyl)-N-(1-methylethyl)-2-[[5-(trifluoromethyl)-1,3,4-thiadiazol-2-yl]oxy]acetamide]
activity LOLPE (visual, scale 0-100%) (LOLPE): 65%
activity MATCH (visual, scale 0-100%) (MATCH [1]): 97%
activity STEME IU soil (visual, scale 0-100%) (STEME; IU soil): 89%
Difference of the soil types, STEME (STEME; IU/EC73 soil versus IU soil): −89%
Difference of the soil types, MATCH (MATCH [2]; IU/EC73 soil versus IU soil): −28%
activity MATCH IU/EC73 soil (visual, scale 0-100%) (MATCH [2]; IU/EC73 soil): 0%
activity ALOMY resistant (visual, scale 0-100%) (ALOMY; resistant biotype): 68%
activity ALOMY sensitive (visual, scale 0-100%) (ALOMY; sensitive biotype): 80%
activity APESV 5 mm (visual, scale 0-100%) (APESV): 67%
